Results published in ChEMBL document CHEMBL1201862, “PubChem BioAssay data set” (2004).
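48-hour exposure; five concentrations; linearly interpolated endpoints. The concentration for 50% growth inhibition is given as GI50.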 Activity calls are given as the source filed them. Cut-off read from the data, not from the text of the source: active = GI50 up to about 1.1 µM and inactive = higher.

Legend:
Assay in all cases: NCI-60 cell line screen, 48 h
[1] = system: M14
[2] = system: CCRF-CEM
[3] = system: EKVX
[4] = system: TK-10
[5] = system: OVCAR-5
[6] = system: SNB-75
[7] = system: HCT-15
[8] = system: 786-0
[9] = system: NCI-H23
[10] = system: PC-3
[11] = system: UACC-257
[12] = system: Malme-3M
[13] = system: NCI/ADR-RES
[14] = system: SNB-19
[15] = system: OVCAR-3
[16] = system: LOX IMVI
[17] = system: SK-MEL-28
[18] = system: KM12
[19] = system: MOLT-4
[20] = system: NCI-H226
[21] = system: A549
[22] = system: SN12C
[23] = system: NCI-H522
[24] = system: MDA-MB-435
[25] = system: COLO 205
[26] = system: SK-OV-3
[27] = system: UACC-62
[28] = system: RXF 393
[29] = system: SF-539
[30] = system: SR
[31] = system: IGROV-1
[32] = system: MCF7
[33] = system: HOP-92
[34] = system: SK-MEL-2
[35] = system: K562
[36] = system: SF-268
[37] = system: HT-29
[38] = system: SF-295
[39] = system: CAKI-1
[40] = system: HCT-116
[41] = system: Hs-578T
[42] = system: DU-145
[43] = system: ACHN
[44] = system: BT-549
[45] = system: HOP-62
[46] = system: OVCAR-8
[47] = system: HCC 2998
[48] = system: SW-620
[49] = system: MDA-MB-231
[50] = system: RPMI-8226
[51] = system: OVCAR-4
[52] = system: T47D
[53] = system: MDA-N
[54] = system: U-251
[55] = system: UO-31
[56] = system: SK-MEL-5
[57] = system: NCI-H460
[58] = system: HL-60
[59] = system: A498

N#Cc1nc(C2CC2)oc1N
GI50 [1]: > 100 µM (inactive) | GI50 [2]: 38.4 µM (inactive) | GI50 [3]: > 100 µM (inactive) | GI50 [4]: > 100 µM (inactive) | GI50 [5]: > 100 µM (inactive) | GI50 [6]: > 100 µM (inactive) | GI50 [7]: > 100 µM | GI50 [8]: > 100 µM (inactive) | GI50 [9]: > 100 µM (inactive) | GI50 [10]: > 100 µM (inactive) | GI50 [11]: > 100 µM (inactive) | GI50 [12]: 94.4 µM (inactive) | GI50 [13]: > 100 µM (inactive) | GI50 [14]: > 100 µM (inactive) | GI50 [15]: > 100 µM (inactive) | GI50 [16]: > 100 µM (inactive) | GI50 [17]: > 100 µM (inactive) | GI50 [18]: 25.7 µM (inactive) | GI50 [19]: > 100 µM (inactive) | GI50 [20]: > 100 µM (inactive) | GI50 [21]: > 100 µM (inactive) | GI50 [22]: > 100 µM (inactive) | GI50 [23]: 25.2 µM (inactive) | GI50 [24]: > 100 µM (inactive) | GI50 [25]: > 100 µM (inactive) | GI50 [26]: > 100 µM (inactive) | GI50 [27]: > 100 µM (inactive) | GI50 [28]: > 100 µM (inactive) | GI50 [29]: > 100 µM (inactive) | GI50 [30]: > 100 µM (inactive) | GI50 [31]: > 100 µM (inactive) | GI50 [32]: > 100 µM (inactive) | GI50 [33]: > 100 µM (inactive) | GI50 [34]: > 100 µM (inactive) | GI50 [35]: > 100 µM (inactive) | GI50 [36]: > 100 µM (inactive) | GI50 [37]: > 100 µM (inactive) | GI50 [38]: > 100 µM (inactive) | GI50 [39]: > 100 µM (inactive) | GI50 [40]: > 100 µM (inactive) | GI50 [41]: > 100 µM (inactive) | GI50 [42]: > 100 µM (inactive) | GI50 [43]: > 100 µM (inactive) | GI50 [44]: > 100 µM (inactive) | GI50 [45]: > 100 µM (inactive) | GI50 [46]: > 100 µM (inactive) | GI50 [47]: > 100 µM (inactive) | GI50 [48]: > 100 µM (inactive) | GI50 [49]: > 100 µM (inactive) | GI50 [50]: > 100 µM (inactive) | GI50 [51]: > 100 µM (inactive) | GI50 [52]: > 100 µM (inactive) | GI50 [53]: > 100 µM (inactive) | GI50 [54]: > 100 µM (inactive)

CC(O)C1CC1(CO)CNc1cc(Cl)nc(N)n1 (stereo not drawn)
GI50 [2]: > 100 µM (inactive) | GI50 [3]: > 100 µM (inactive) | GI50 [4]: > 100 µM (inactive) | GI50 [5]: > 100 µM (inactive) | GI50 [6]: > 100 µM (inactive) | GI50 [7]: > 100 µM | GI50 [8]: > 100 µM (inactive) | GI50 [9]: > 100 µM (inactive) | GI50 [10]: > 100 µM (inactive) | GI50 [11]: > 100 µM (inactive) | GI50 [55]: > 100 µM (inactive) | GI50 [12]: > 100 µM (inactive) | GI50 [13]: > 100 µM (inactive) | GI50 [14]: > 100 µM (inactive) | GI50 [15]: > 100 µM (inactive) | GI50 [16]: > 100 µM (inactive) | GI50 [17]: > 100 µM (inactive) | GI50 [18]: > 100 µM (inactive) | GI50 [19]: > 100 µM (inactive) | GI50 [20]: > 100 µM (inactive) | GI50 [21]: > 100 µM (inactive) | GI50 [22]: > 100 µM (inactive) | GI50 [23]: > 100 µM (inactive) | GI50 [24]: > 100 µM (inactive) | GI50 [25]: > 100 µM (inactive) | GI50 [26]: > 100 µM (inactive) | GI50 [27]: > 10 µM (inactive) | GI50 [28]: > 100 µM (inactive) | GI50 [29]: > 100 µM (inactive) | GI50 [56]: > 100 µM (inactive) | GI50 [57]: > 100 µM (inactive) | GI50 [30]: > 100 µM (inactive) | GI50 [31]: > 100 µM (inactive) | GI50 [32]: > 100 µM (inactive) | GI50 [33]: > 100 µM (inactive) | GI50 [34]: > 100 µM (inactive) | GI50 [35]: > 100 µM (inactive) | GI50 [36]: > 100 µM (inactive) | GI50 [37]: > 100 µM (inactive) | GI50 [38]: > 100 µM (inactive) | GI50 [39]: > 100 µM (inactive) | GI50 [40]: > 100 µM (inactive) | GI50 [41]: > 100 µM (inactive) | GI50 [42]: > 100 µM (inactive) | GI50 [43]: > 100 µM (inactive) | GI50 [58]: > 100 µM (inactive) | GI50 [44]: > 100 µM (inactive) | GI50 [45]: > 100 µM (inactive) | GI50 [46]: > 100 µM (inactive) | GI50 [47]: > 100 µM (inactive) | GI50 [48]: > 100 µM (inactive) | GI50 [49]: > 100 µM (inactive) | GI50 [50]: > 100 µM (inactive) | GI50 [51]: > 100 µM (inactive) | GI50 [52]: > 100 µM (inactive) | GI50 [53]: > 100 µM (inactive) | GI50 [54]: > 100 µM (inactive)

COc1ccc(C(=O)O[C@H]2CC[C@@]3(C)[C@@H]4CC[C@H]5[C@]6(O)C[C@H](O)[C@@]7(O)[C@@H](CN8C[C@@H](C)CC[C@H]8[C@@]7(C)O)[C@]6(O)C[C@@]53OC24O)cc1OC [VERATRIDINE]
GI50 [1]: > 100 µM (inactive) | GI50 [3]: > 100 µM (inactive) | GI50 [4]: > 100 µM (inactive) | GI50 [5]: > 100 µM (inactive) | GI50 [6]: 23.4 µM (inactive) | GI50 [7]: > 100 µM | GI50 [8]: > 100 µM (inactive) | GI50 [9]: > 100 µM (inactive) | GI50 [10]: > 100 µM (inactive) | GI50 [11]: 71.3 µM (inactive) | GI50 [55]: > 100 µM (inactive) | GI50 [12]: > 100 µM (inactive) | GI50 [13]: > 100 µM (inactive) | GI50 [14]: > 100 µM (inactive) | GI50 [15]: > 100 µM (inactive) | GI50 [16]: > 100 µM (inactive) | GI50 [17]: > 100 µM (inactive) | GI50 [18]: > 100 µM (inactive) | GI50 [19]: 95.5 µM (inactive) | GI50 [20]: 44.3 µM (inactive) | GI50 [21]: > 100 µM (inactive) | GI50 [22]: > 100 µM (inactive) | GI50 [23]: > 100 µM (inactive) | GI50 [24]: > 100 µM (inactive) | GI50 [25]: > 100 µM (inactive) | GI50 [26]: > 100 µM (inactive) | GI50 [27]: > 100 µM (inactive) | GI50 [28]: 57.5 µM (inactive) | GI50 [29]: 82 µM (inactive) | GI50 [56]: > 100 µM (inactive) | GI50 [57]: 75.2 µM (inactive) | GI50 [30]: 74.8 µM (inactive) | GI50 [31]: > 100 µM (inactive) | GI50 [32]: > 100 µM (inactive) | GI50 [33]: > 100 µM (inactive) | GI50 [34]: > 100 µM (inactive) | GI50 [35]: > 100 µM (inactive) | GI50 [36]: > 100 µM (inactive) | GI50 [37]: 60.1 µM (inactive) | GI50 [38]: > 100 µM (inactive) | GI50 [39]: > 100 µM (inactive) | GI50 [40]: > 100 µM (inactive) | GI50 [41]: > 100 µM (inactive) | GI50 [42]: > 100 µM (inactive) | GI50 [43]: > 100 µM (inactive) | GI50 [44]: > 100 µM (inactive) | GI50 [45]: > 100 µM (inactive) | GI50 [46]: > 100 µM (inactive) | GI50 [47]: 46.1 µM (inactive) | GI50 [48]: > 100 µM (inactive) | GI50 [49]: > 100 µM (inactive) | GI50 [50]: 80.4 µM (inactive) | GI50 [59]: > 100 µM (inactive) | GI50 [51]: > 100 µM (inactive) | GI50 [52]: > 100 µM (inactive) | GI50 [53]: > 100 µM (inactive) | GI50 [54]: > 100 µM (inactive)
